Data: ChEMBL document CHEMBL1129964 (J Med Chem, 1997)

Legend:
[1] = target: Prothrombin (Homo sapiens, UniProt P00734); test: Binding affinity towards thrombin
[2] = target: Tissue-type plasminogen activator (Homo sapiens, UniProt P00750); test: Binding affinity against tissue-type plasminogen activator receptor
[3] = target: Serine protease 1 (Homo sapiens, UniProt P07477); test: Binding affinity towards trypsin
[4] = target: Plasminogen (Homo sapiens, UniProt P00747); test: Binding affinity towards Plasmin
Plasminogen, sequence (P00747 97-580 limits assumed): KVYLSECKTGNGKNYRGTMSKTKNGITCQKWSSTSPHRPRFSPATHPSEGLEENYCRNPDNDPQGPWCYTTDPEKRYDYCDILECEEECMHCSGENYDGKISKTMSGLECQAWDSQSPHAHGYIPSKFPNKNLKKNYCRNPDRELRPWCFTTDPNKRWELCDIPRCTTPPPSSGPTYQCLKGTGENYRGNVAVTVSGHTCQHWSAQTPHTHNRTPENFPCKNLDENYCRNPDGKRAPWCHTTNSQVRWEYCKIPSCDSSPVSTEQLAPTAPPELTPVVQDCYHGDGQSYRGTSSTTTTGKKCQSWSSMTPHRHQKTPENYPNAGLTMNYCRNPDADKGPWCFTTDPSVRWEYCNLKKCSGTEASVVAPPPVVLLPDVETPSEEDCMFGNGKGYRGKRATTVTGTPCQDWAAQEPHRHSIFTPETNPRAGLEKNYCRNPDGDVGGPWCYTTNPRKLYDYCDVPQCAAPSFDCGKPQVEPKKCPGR
Plasminogen, sequence (P00747 581-810 limits assumed): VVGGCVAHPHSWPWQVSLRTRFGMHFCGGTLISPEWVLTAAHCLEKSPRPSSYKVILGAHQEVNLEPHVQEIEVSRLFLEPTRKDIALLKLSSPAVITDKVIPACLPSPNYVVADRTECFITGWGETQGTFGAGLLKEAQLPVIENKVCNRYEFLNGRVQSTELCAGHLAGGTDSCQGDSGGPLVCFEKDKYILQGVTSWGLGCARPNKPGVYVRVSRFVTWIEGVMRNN

Serine protease 1, sequence (P07477 whole entry): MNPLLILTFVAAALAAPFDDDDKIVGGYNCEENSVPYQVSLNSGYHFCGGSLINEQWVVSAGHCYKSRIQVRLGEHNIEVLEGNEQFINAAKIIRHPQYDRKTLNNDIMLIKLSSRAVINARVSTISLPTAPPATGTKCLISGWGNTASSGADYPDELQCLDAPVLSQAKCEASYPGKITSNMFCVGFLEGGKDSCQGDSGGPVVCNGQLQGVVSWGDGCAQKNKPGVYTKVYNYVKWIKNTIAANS
Tissue-type plasminogen activator, sequence (P00750 whole entry): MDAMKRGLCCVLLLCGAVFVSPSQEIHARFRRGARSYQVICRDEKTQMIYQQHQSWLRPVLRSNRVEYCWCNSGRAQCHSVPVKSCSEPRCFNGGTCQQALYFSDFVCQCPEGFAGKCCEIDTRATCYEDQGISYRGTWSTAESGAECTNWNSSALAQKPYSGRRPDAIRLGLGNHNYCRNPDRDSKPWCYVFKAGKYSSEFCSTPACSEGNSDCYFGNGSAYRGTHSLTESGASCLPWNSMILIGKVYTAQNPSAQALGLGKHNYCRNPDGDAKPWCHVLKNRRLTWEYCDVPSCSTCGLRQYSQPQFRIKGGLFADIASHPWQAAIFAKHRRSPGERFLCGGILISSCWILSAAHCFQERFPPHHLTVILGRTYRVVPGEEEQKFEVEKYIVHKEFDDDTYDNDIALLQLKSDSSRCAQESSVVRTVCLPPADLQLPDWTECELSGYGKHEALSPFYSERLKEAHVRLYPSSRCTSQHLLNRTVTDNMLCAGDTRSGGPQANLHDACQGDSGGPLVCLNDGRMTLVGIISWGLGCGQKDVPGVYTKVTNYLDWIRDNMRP

SMILES	Ki [1] [nM]	Ki [2] [µM]	Ki [3] [µM]	Ki [4] [µM]
CN[C@H](Cc1ccccc1)C(=O)N1CCC[C@H]1C(=O)NC[C@H]1CC[C@H](N)CC1	5	–	–	–
CNC(=O)C(=O)[C@@H](NC(=O)[C@@H]1CCCN1C(=O)[C@@H](Cc1ccccc1)NC)[C@H]1CC[C@H](N)CC1	0.09	–	–	–

Next, values leading:

Ki [1] [nM]	Ki [2] [µM]	Ki [3] [µM]	Ki [4] [µM]	SMILES
0.4	–	–	–	NC1CCC(CNC(=O)[C@@H]2CCCN2C(=O)[C@@H](Cc2ccccc2)NS(=O)(=O)Cc2ccccc2)CC1 (stereo partly drawn)
0.1	–	–	–	NC1CCC(CNC(=O)[C@@H]2CCCN2C(=O)[C@H](N)C(c2ccccc2)c2ccccc2)CC1 (stereo partly drawn)
0.0025	6700	0.004	0.49	NC1CCC(CNC(=O)[C@@H]2CCCN2C(=O)C(NS(=O)(=O)Cc2ccccc2)C(c2ccccc2)c2ccccc2)CC1 (stereo partly drawn)
